These are literature values, as cited in patent publication US20140294799A1, “USE OF COMPOSITIONS HAVING A LOW POLYAMINE CONTENT IN THE PREVENTION OR TREATMENT OF ADVERSE EFFECTS LINKED TO CANCER TREATMENT” (NUTRIALYS MEDICAL NUTRITION SA, priority 2011, published 2014).

In this data set the test system is skin of irradiated animals. Particulars: topical application to the skin of irradiated animals.

With `NCCCNCCCCNCCCN` [spermine], the effect on alopecia entry is “effective in the treatment of alopecia”. Consider `N=C(N)NCCCCN` [agmatine], for which the effect on dermatitis result is given as “reduce dermatitis”.
